Values of other authors as cited in US20090137477A1, “Treatment of oropharyngeal candidiasis in cancer patients” (BIOALLIANCE PHARMA, priority 2007, published 2009).

Tested on: oropharyngeal candidiasis
Conditions: orally 50 mg/day for 14 days

OC(Cn1cncn1)(Cn1cncn1)c1ccc(F)cc1F [fluconazole]
clinical cure: 21%
clinical response: 53%
